Measurements reported in US10550150B2, “Short-chain peptides as Kappa (κ) opioid receptors (KOR) agonist” (CADILA HEALTHCARE LIMITED, priority 2015, dated 2020).
pEC50: −log10 of the molar value. Like-named read-outs stand apart in the source and are kept apart here. *1 amine or outer side, *2 acyl side, *3 side chain or, on linkers, in order; H or OH if unused. Where a SMILES comes first, the peptide text is derived from it. [ ]: non-standard residue; d: D form. The star is where a group is joined. X26 = O=C(CN1CC2CC(C1)N2*)OCc1ccccc1; X9 = O=C(CN1CC2CC(C1)N2[*:1])[*:2]; X28 = O=C(O)CCN(CCC(=O)O)*; X4 = O=C(O)CN1CC2CC(C1)N2*; Ac6c = NC1(C(=O)O)CCCCC1; Ac5c = NC1(C(=O)O)CCCC1; X10 = OCCN(CCO)*

Experiments:
[1] = molecular target: T1, Kappa (κ) opioid receptors (KOR) (Homo sapiens, UniProt P41145); experiment: In vitro KOR agonistic activity, cAMP based functional assay; type: cell-based
T1 construct: host or cells: unnamed cells grown in Ham's F-12 medium
Experimental: a) In Vitro (EC50) Determination, Using cAMP Based Functional Assay:
In vitro, KOR agonistic activity of test compounds were assessed using cAMP based functional assay. A 96-well plate was seeded at the density of 30,000 cells/well in 100 μl/well of complete Ham's F-12 medium. After seeding, the plates were incubated overnight at 37° C., 5% CO2, in CO2 Incubator. Overnight medium was discarded and plate washed with 100 μl/well of sterile PBS. Then 90 μl of 0.1 mM IBMX containing 0.5% Fatty acid free BSA in plain HamsF12 was added to each well. This was allowed to incubate for 30 minutes at 37° C., 5% CO2. Forskolin 20 μM in 0.5% Fatty acid free BSA was added to each well and allowed to incubate at room temperature for 5 minutes. Dilution of test compounds was made at 200× in DMSO and then diluted 1:10 times in BSA containing plain HamsF12. Agonist (test compounds, in 10% DMSO) was added to each well (5 μl) and allowed to incubate for 20 minutes at 37° C., 5% CO2. After 20 minutes, media was aspirated from the wells and the wells were washed with 1×PBS. Cell lysis buffer 4× (Arbor Assays, Cat # X074-60 ML) was diluted 1:4 in MilliQ and 90 μl of this buffer was added per well. Cells were allowed to shake at 500 rpm, room temperature for 20 minutes. Cell lysate was collected in 1.5 ml eppendorf tubes and centrifuged at 13.2 k rpm, 4° C. for 15 minutes. 50 μl of the supernatant of cell lysate was then used for cAMP estimation by cAMP direct ELISA kit (Arbor Assays, Cat # K019-H5).

[2] = system: acetic acid induced writhing; experiment: Acetic acid-induced writhing model (antinociceptive activity); type: in vivo; details: acetic acid induced pain model, ICR mice (n = 6), iv
Experimental: In Vivo (ED50) Determination, Using Acetic Acid-Induced Writhing Model
The acetic acid induced writhing assay can detect antinociceptive activity for opioid drug, acting at peripheral, spinal and supraspinal levels. Animals were fasted 12 to 16 h prior testing. The nociceptive response (abdominal contractions or writhes) was induced by diluted acetic acid (0.6%, 10 ml/kg, for mice and 2.5%, 0.5 ml/rat) administered intraperitoneally (i.p.) at time 0 min.
In mouse experiments, compounds were administered orally, intravenously (i.v.) or subcutaneously (s.c.). To determine the antinociceptive potency and efficacy, full dose-response curves were constructed with test compounds, given 5 min prior to acetic acid administration. The duration of action was determined by using increasing pretreatment time (5, 60, and 120 min.), prior to acetic acid administration, for a sub-maximally effective dose defined during the dose-response curve study. In rat experiments, compounds were administered orally, intravenously (i.v.) or subcutaneously (s.c.), 15 min prior to acetic acid administration. The number of writhes was counted over the 15 min period following acetic acid administration. A writhe is defined as a constriction of the abdominal area, often with extension of the hind legs. Percentage maximum possible effect (MPE) was calculated as: % MPE=100−[(No. of writhes in test compound treated animal/No. of writhes in vehicle treated animal)]×100. ED50 dose was determined using GraphPad Prism.

[3] = cAMP based functional assay, forskolin stimulated, read-out: In-vitro EC50
[4] = refers to Table-4, read-out: in vitro KOR agonistic activity EC50

T1 sequence (P41145 whole entry): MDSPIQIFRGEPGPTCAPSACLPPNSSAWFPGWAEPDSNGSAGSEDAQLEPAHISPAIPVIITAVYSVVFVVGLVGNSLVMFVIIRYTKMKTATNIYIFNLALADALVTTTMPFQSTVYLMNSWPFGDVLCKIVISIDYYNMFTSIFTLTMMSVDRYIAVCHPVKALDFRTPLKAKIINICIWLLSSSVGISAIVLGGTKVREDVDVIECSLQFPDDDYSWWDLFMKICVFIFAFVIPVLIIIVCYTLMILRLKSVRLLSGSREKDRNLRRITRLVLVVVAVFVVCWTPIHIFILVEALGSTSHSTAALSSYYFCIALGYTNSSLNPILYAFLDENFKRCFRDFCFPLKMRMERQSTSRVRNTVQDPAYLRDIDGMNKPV

| Compound | pEC50 [1, 3] | In-vivo ED50 [2] [mpk] | pEC50 [1, 4] |
| --- | --- | --- | --- |
| CCOC(=O)C1CC2CN(C(=O)C(CCCCN)NC(=O)C(CC(C)C)NC(=O)C(Cc3ccccc3)NC(=O)C(N)Cc3ccccc3)CC2C1 (centres unmarked) [Compound 27] | 11.05 |  |  |
| CC(C)CC(NC(=O)C(Cc1ccccc1)NC(=O)C(N)Cc1ccccc1)C(=O)NC(CCCCN)C(=O)N1C2CC1CN(CC(=O)NC(CCC(=O)O)C(=O)O)C2 (centres unmarked) [Compound 104] (H-FFLK[X9]E-OH; configuration not given here) |  | 0.07 |  |
| CC(C)CC(NC(=O)C(Cc1ccccc1)NC(=O)C(N)Cc1ccccc1)C(=O)NC(CCCCN)C(=O)N1C2CC1CN(CC(=O)N(CCC(=O)O)CCC(=O)O)C2 (centres unmarked) [Compound 100] (H-FFLK[X9]-X28; configuration not given here) | 10.82 |  |  |
| CC(C)CC(NC(=O)C(Cc1ccccc1)NC(=O)C(N)Cc1ccccc1)C(=O)NC(CCCCN)C(=O)N1CC2=C(CN(CC(N)=O)C2)C1 (centres unmarked) [Compound 5] | 11.05 | 0.07 | > 10.00 |
| CC(C)CC(NC(=O)C(Cc1ccccc1)NC(=O)C(N)Cc1ccccc1)C(=O)NC(CCCCN)C(=O)N1C2CCC1CC(O)C2 (centres unmarked) [Compound 105] | 11.70 |  |  |
| CCOC(=O)CN1CC2CC(C1)N2C(=O)C(CCCCN)NC(=O)C(CC(C)C)NC(=O)C(Cc1ccccc1)NC(=O)C(N)Cc1ccccc1 (centres unmarked) [Compound 35] | 11.00 | 0.03 | > 10.00 |
| CC(C)CC(NC(=O)C(Cc1ccccc1)NC(=O)C(N)Cc1ccccc1)C(=O)NC(CCCCN)C(=O)N1CC2CN(S(C)(=O)=O)CC2C1 (centres unmarked) [Compound 19] |  | 0.28 |  |
| CC(C)CC(NC(=O)C(Cc1ccccc1)NC(=O)C(N)Cc1ccccc1)C(=O)NC(CCCCN)C(=O)N1CC2=C(CN(C(=O)CO)C2)C1 (centres unmarked) [Compound 10] | 9.40 |  |  |
| CC(C)CC(NC(=O)C(Cc1ccccc1)NC(=O)C(N)Cc1ccccc1)C(=O)NC(CCCCN)C(=O)N1C2CC1CN(S(C)(=O)=O)C2 (centres unmarked) [Compound 39] |  | 0.18 |  |
| CC(C)CC(NC(=O)C(Cc1ccccc1)NC(=O)C(N)Cc1ccccc1)C(=O)NC(CCCCN)C(=O)N1CC2CNCC2C1 (centres unmarked) [Compound 13] |  | 1 |  |
| CC(C)CC(NC(=O)C(Cc1ccccc1)NC(=O)C(N)Cc1ccccc1)C(=O)NC(CCCCN)C(=O)N1CC2CC(=O)CC2C1 (centres unmarked) [Compound 23] | 10.07 |  |  |
| CC(C)CC(NC(=O)C(Cc1ccccc1)NC(=O)C(N)Cc1ccccc1)C(=O)NC(CCCCN)C(=O)N1C2CC1CN(C(=O)CN(CC(=O)O)CC(=O)O)C2 (centres unmarked) [Compound 102] | 10.92 |  |  |
| CC(C)CC(NC(=O)C(Cc1ccccc1)NC(=O)C(C)(N)Cc1ccccc1)C(=O)NC(CCCCN)C(=O)N1CC2CC(C1)N2CC(=O)O (centres unmarked) [Compound 57] |  | 0.26 |  |
| NCCCCC(NC(=O)C1(NC(=O)C(Cc2ccccc2)NC(=O)C(N)Cc2ccc(O)cc2)CCCCC1)C(=O)N1C2CC1CN(CC(=O)O)C2 (centres unmarked) [Compound 92] (H-YF[Ac6c]K-X4; configuration not given here) | 10.74 |  |  |
| CC(C)CC(NC(=O)C(Cc1ccccc1)NC(=O)C(N)Cc1ccccc1)C(=O)NC(CCCCN)C(=O)N1C2CNCC1C2 (centres unmarked) [Compound 32] | 10.70 |  |  |
| CC(C)CC(NC(=O)C(Cc1ccccc1)NC(=O)C(N)Cc1ccccc1)C(=O)NC(CCCCN)C(=O)N1C2CC1CN(CC(=O)O)C2 (centres unmarked) [Compound 36] | 10.82 | 0.04 | > 10.00 |
| CC(C)CC(NC(=O)C(Cc1ccccc1)NC(=O)C(N)Cc1ccccc1)C(=O)NC(CCCCN)C(=O)N1CC2CN(CC(N)=O)CC2C1 (stereo not drawn) [Compound 17, H2N-Phe-Phe-Leu-Lys-Hpp-CONH2] | 9.42 |  |  |
| CC(C)CC(NC(=O)C(Cc1ccccc1)NC(=O)C(N)Cc1ccccc1)C(=O)NC(CCCCN)C(=O)N1C2CC1CN(CC(N)=O)C2 (centres unmarked) [Compound 37] | 10.08 | 0.08 | > 10.00 |
| CC(C)CC(NC(=O)C(Cc1ccccc1)NC(=O)C(N)Cc1ccccc1)C(=O)NC(CCCCN)C(=O)N1CC2=C(CN(CC(=O)O)C2)C1 (centres unmarked) [Compound 4] | 10.33 |  | > 10.00 |

| Compound | pEC50 [1, 3] | In-vivo ED50 [2] [mpk] | pEC50 [1, 4] |
| --- | --- | --- | --- |
| CC(C)CC(NC(=O)C(Cc1ccccc1)NC(=O)C(N)Cc1ccccc1)C(=O)NC(CCCCN)C(=O)N1C2CC1CN(C)C2 (centres unmarked) [Compound 33] | 11.05 |  |  |
| NCCCCC(NC(=O)C1(NC(=O)C(Cc2ccccc2)NC(=O)C(N)Cc2ccccc2)CCCCC1)C(=O)N1C2CC1CN(CC(=O)O)C2 (centres unmarked) [Compound 41] (H-FF[Ac6c]K-X4; configuration not given here) | 10.82 |  |  |
| CC(C)CC(NC(=O)C(Cc1ccccc1)NC(=O)C(N)Cc1ccccc1)C(=O)NC(CCCCN)C(=O)N1C2CC1CN(CCO)C2 (centres unmarked) [Compound 38] |  | 0.04 |  |
| CC(C)CC(NC(=O)C(Cc1ccccc1)NC(=O)C(N)Cc1ccccc1)C(=O)NC(CCCCN)C(=O)N1CC2CN(CC(=O)O)CC2C1 (centres unmarked) [Compound 16] | 11.40 | 0.1 | > 10.00 |
| CC(C)CC(NC(=O)C(Cc1ccccc1)NC(=O)C(N)Cc1ccccc1)C(=O)NC(CCCCN)C(=O)N1CC2CC(C1)N2 (centres unmarked) [Compound 51] | 10.92 |  |  |
| CC(C)CC(NC(=O)C(Cc1ccccc1)NC(=O)C(N)Cc1ccccc1)C(=O)NC(CCCCN)C(=O)N1CC2CC(CN)CC2C1 (centres unmarked) [Compound 26] | 9.66 |  |  |
| CC(C)CC(NC(=O)C(Cc1ccccc1)NC(=O)C(N)Cc1ccccc1)C(=O)NC(CCCCN)C(=O)N1CC2CN(CCO)CC2C1 (centres unmarked) [Compound 18] |  | 1 |  |
| CCOC(=O)CN1CC2CN(C(=O)C(CCCCN)NC(=O)C(CC(C)C)NC(=O)C(Cc3ccccc3)NC(=O)C(N)Cc3ccccc3)CC2C1 (centres unmarked) [Compound 15] | 11.15 | 0.1 | > 10.00 |
| CC(C)CC(NC(=O)C(Cc1ccccc1)NC(=O)C(N)Cc1ccccc1)C(=O)NC(CCCCN)C(=O)N1C2CC1CN(C(=O)CCCCCN)C2 (centres unmarked) [Compound 93] |  | 0.11 |  |
| CC(C)CC(NC(=O)C(Cc1ccccc1)NC(=O)C(N)Cc1ccccc1)C(=O)NC(CCCCN)C(=O)N1C2CC1CN(Cc1ccccc1)C2 (centres unmarked) [Compound 34, N-(6-amino-1-(3-benzyl-3,6-diazabicyclo[3.1.1]heptan-6-yl)-1-oxohexan-2-yl)-2-(2-(2-amino-3-phenylpropanamido)-3-phenylpropanamido)-4-methylpentanamide] | 10.06 |  |  |
| NCCCCC(NC(=O)C1(NC(=O)C(Cc2ccccc2)NC(=O)C(N)Cc2ccccc2)CCCC1)C(=O)N1C2CC1CN(CC(=O)O)C2 (centres unmarked) [Compound 42] (H-FF[Ac5c]K-X4; configuration not given here) |  | 0.23 |  |
| NCCCCC(NC(=O)C1(NC(=O)C(Cc2ccccc2)NC(=O)C(N)Cc2ccccc2)CCCCC1)C(=O)N1C2CC1CN(CC(=O)OCc1ccccc1)C2 (centres unmarked) [Compound 50] (H-FF[Ac6c]K-X26; configuration not given here) | 11.10 |  |  |
| CC(C)CC(NC(=O)C(Cc1ccccc1)NC(=O)C(N)Cc1ccccc1)C(=O)NC(CCCCN)C(=O)N1C2CC1CN(CC(=O)N(CC(=O)O)CC(=O)O)C2 (centres unmarked) [Compound 99] | 10.80 |  |  |
| CC(C)CC(NC(=O)C(Cc1ccccc1)NC(=O)C(N)Cc1ccc(O)cc1)C(=O)NC(CCCCN)C(=O)N1C2CC1CN(CC(=O)O)C2 (centres unmarked) [Compound 90] (H-YFLK-X4; configuration not given here) |  | 0.98 |  |
| CC(C)CC(NC(=O)C(Cc1ccccc1)NC(=O)C(N)Cc1ccccc1)C(=O)NC(CCCCN)C(=O)N1C2CC1CN(CC(=O)N(CCO)CCO)C2 (centres unmarked) [Compound 101] (H-FFLK[X9]-X10; configuration not given here) | 10.92 |  |  |
| CC(C)CC(NC(=O)C(Cc1ccccc1)NC(=O)C(N)Cc1ccccc1)C(=O)NC(CCCCN)C(=O)N1C2CC1CN(CC(=O)OCc1ccccc1)C2 (centres unmarked) [Compound 49] | 10.80 |  |  |
| CC(C)CC(NC(=O)C(Cc1ccccc1)NC(=O)C(N)Cc1ccccc1)C(=O)NC(CCCCN)C(=O)N1CC2CC1CN2Cc1ccccc1 (centres unmarked) [Compound 62] |  | 0.31 |  |
| CC(C)CC(NC(=O)C(Cc1ccccc1)NC(=O)C(N)Cc1ccccc1)C(=O)NC(CCCCN)C(=O)N1C2CC1CN(C(=O)C(N)CO)C2 (centres unmarked) [Compound 97] |  | 0.42 |  |
